Results taken from US7632506B2, “Identification of new NY-ESO-1 epitopes recognized by CD4+ T-cells” (Ludwig Institute for Cancer Research, priority 2005, dated 2009).

How the values were obtained:
[1] = tested on: CD4+ T cell clones NW2337-CD4-1 and NW2337-CD4-10; assay: Peptide titration ELISPOT assay with overlapping NY-ESO-1 peptides; format: cell-based, human; details: peptide 10 μM to 0.1 nM pulsed onto autologous EBV-B-cells
Description: (§1) The CD4^+ T cells were restimulated weekly with 1 μg/ml of the peptide being used. On day 12, each CD4^+ culture was assayed for NY-ESO-1 peptide recognition, using the ELISPOT assay of lager, et al., Proc. Natl. Acad. Sci. USA, 97(9):4760-4765 (2000), incorporated by reference. To elaborate on this procedure, flat-bottomed, 96-well nitrocellulose plates were coated with 5 μg/ml of anti-interferon-gamma antibody and incubated overnight at 4° C. After washing with PBS, plates were blocked with 10% human serum (HS) for 1 hour at 37° C. Depending on the effector:target ratio used, various numbers of presensitized CD4^+ T-cells were added to each well along with 5×10^4 autologous peptide pulsed EBV transfected B cells (“EBV-B cells”) serving as target cells and incubated for 16 hours at 37° C. in TCM without IL-2. Plates were then washed extensively (6 times with a solution of 0.05% Tween 20/PBS), and biotinylated anti-interferon-gamma detection antibody was added at a concentration of 0.5 μg/ml. After incubation for 2 h at 37° C., plates were washed and incubated with ABC-AP Vectastain for 1 hour. Plates were washed again and developed with substrate (BCIP/NPT) until blue spots were visible. The number of blue spots/well represented the proportion of NY-ESO-1 specific CD4^+ T-cells/well was finally counted under the microscope.
To further identify the exact epitope required for CD4^+ T cell recognition by these two CD4^+ T cell clones, a peptide titration assay was performed using overlapping NY-ESO-1 peptides (FIG. 2) at concentrations between 10 μM and 0.1 nM, pulsed onto autologous EBV-B-cells and tested in ELISPOT assays (FIG. 3).

CD4+ T cells [2] = assay: IFN-γ ELISPOT of CD4+ T cells presensitized with overlapping NY-ESO-1 18 mer peptides; format: cell-based, human; details: for Patient T cells 1 / Patient T cells 2 / Patient T cells 3: IFN-γ ELISPOT; for Patient T cells 1: day 12, CD4+ T cells of patient 1, autologous peptide pulsed EBV-B cells as targets; for Patient T cells 2: day 12, CD4+ T cells of patient 2, autologous peptide pulsed EBV-B cells as targets; for Patient T cells 3: day 12, CD4+ T cells of patient 3, autologous peptide pulsed EBV-B cells as targets; for patients whose CD4+ T cells recognized the peptide: three patients tested
Description: Peripheral blood mono-nuclear cells (“PBMCs”) were separated from heparinized blood via Ficoll density gradient separation, using standard, art recognized techniques. Once this was done, the CD4^+ and CD8^+ T cells were separated from each other using magnetic cell sorting techniques which are well known to the art, producing CD4^+, CD8^+, and CD4^−/CD8^− cell populations.
A series of 18 mer peptides were prepared from the amino acid sequence of NY-ESO-1 as set forth in, e.g., U.S. Pat. No. 5,804,381, incorporated by reference. The peptides were designed to cover the entire sequence of NY-ESO-1, and to provide overlap.
The peptides were then individually pulsed to antigen presenting cells (“APCs”). These were CD4^−/CD8^− PBMCs taken from the same subjects who had provided the CD4^+ and CD8^+ cells. These APCs were irradiated with 3000 rads, and then pulsed with one of the peptides, at a concentration of 10 μg/ml, for 1 hour, in serum free medium. These APCs were then washed, and added to the CD4^+ cells. In the pulsing experiments, the peptides were solubilized in DMSO (100%) and then diluted with PBS to a final concentration of 10% DMSO. The CD4^+ cells had been cultured in a medium of L-arginine (242 mg/l), L-asparagene (50 mg/l), L-glutamine (300 mg/l), penicillin (10 IU/ml), streptomycin (100 μg/ml), 1% non-essential amino acids, 10% HS, and 10 ng/ml of recombinant human IL-2.
as §1
The EBV-B-cells were generated from each patients' PBMC following standard methods and maintained in RPMI 1640 medium supplemented with 10 mM Hepes buffer, L-arginine (242 mg/l), L-asparagine (50mg/l), L-glutamine (300 mg/l), penicillin (10 IU/ml), streptomycin (100 μg/ml), 1% non-essential amino acids, and 10% FCS. […] PBMC's or EBV-B-cells were molecularly typed for HLA expression using standard procedures.

[3] = tested on: CD4+ T cell clones NW2337-CD4-1 and NW2337-CD4-10; assay: 51Cr release assay with peptide-pulsed EBV-B target cells; format: cell-based, human; details: for recognition by clone NW2337-CD4-10: clone generated with p55-72
Description: In these experiments, exemplary clones NY-ESO-1 p49-66 specific CD4^+ T cell clone NW2337-CD4-1 and NY-ESO-1 p55-72 specific CD4^+ T cell clone NW2337-CD4-10 were characterized in ^51Chromium (^51Cr) release assays using peptides overlapping the sequence of each stimulation peptide. Standard ^51Cr release assay methods were used. Briefly, autologous EBV B cell target cells were labeled with 100 μCi Na2^51CrO4 for 2 hours, and pulsed with 18 mer or 20 mer NY-ESO-1 peptides (10 μg/ml) for 1 hour. Then, 1×10^3 target cells/well were incubated in 96 V- bottom microwell plates with effector cells at different E/T ratios for 4 h at 37° C. ^51Cr release was measured in the supernatant and the specific cytotoxicity was calculated using the standard methods. Polyclonal T-cell populations were preincubated with unlabeled K562 cells as competitors at a concentration of 40:1 in order to block non-specific effector reactions.
These experiments confirmed recognition of naturally presented NY-ESO-1 epitopes by the CD4+ T-cell clones.

HLA-DQB1 03011 = target: T1, HLA-DQB1 03011 (Homo sapiens, UniProt P01909+P01920); assay: ELISPOT with peptide pulsed allogeneic EBV-B-cells of known HLA class II type (HLA restriction); format: cell-based; details: only shared allele of the recognized peptide pulsed allogenic EBV-B cell lines
T1 construct: peptide pulsed allogeneic EBV-B-cells with known HLA class II types as stimulator cells; endogenous in cells; host or cells: allogeneic patient-derived EBV-transformed B-cell lines (NW-2078, NW-2081, NW-2395, NW-2234, NW-2337, NW-1100, MZ-1257)
Description: In order to determine the HLA molecule to which the novel NY-ESO-1 peptides described above bind, the NW2337 CD4^+ T-cell clones NW2337-CD4-1 and NW2337-CD4-10, were tested in ELISPOT assays using a range of peptide pulsed allogeneic EBV-B-cells with known HLA class II types as stimulator cells as indicated in the following Table. The EBV-B-cell lines were HLA typed using standard methods as described above.
The NW2337-CD4-1 clone recognized allogenic peptide pulsed EBV-B cells from patients NW-2078, NW-2081, NW-2395, NW-2234, NW-2337, NW-1100 and MZ-1257. The allogenic EBV-B cells were recognized by the T cells when pulsed exogenously with either the NY-ESO-1 p49-66 or p55-72 as observed with autologous EBV-B cells described above. […] None of the EBV-B-cells lines that were not recognized by the T cells expressed this MHC allele. […] Again the NY-ESO-1 positive MZ-1257 EBV-B-cell line was recognized with or without exogenous peptide.

NW2337 CD4+ T cells = assay: Cytokine ELISPOT assays (IFNγ, TNFα, IL4, IL10) of NW2337 CD4+ T cells; format: cell-based, human
Excerpt: All ELISPOT assay described, supra were designed to detect IFN-γ secretion by the T cell clones following specific antigen stimulation. To determine the phenotype of the NY-ESO-1 specific CD4^+ T cell clones from patient NW2337, additional ELISPOT assays were designed to detect additional cytokines.
The NW2337 CD4^+ T cells were stimulated with either NY-ESO-1 p49-66 and p55-72 peptides and T cells secretion of IFNγ, TNFα, IL4 and IL10measured by ELISPOT assay. […] IL4 and IL10 was not secreted by any of the NY-ESO-1 specific CD4^+ T-cell clones tested following stimulation with NY-ESO-1 p49-66 and p55-72 peptides.

CD4+ T cells [4] = assay: IFN-γ ELISPOT of CD4+ T cells presensitized with overlapping NY-ESO-1 18 mer peptides; format: cell-based, human; details: patient NW2337, limiting dilution
[5] = autologous EBV B cells pulsed with peptide 10 μg/ml

T1 sequence (P01920 33-261, other chains not shown): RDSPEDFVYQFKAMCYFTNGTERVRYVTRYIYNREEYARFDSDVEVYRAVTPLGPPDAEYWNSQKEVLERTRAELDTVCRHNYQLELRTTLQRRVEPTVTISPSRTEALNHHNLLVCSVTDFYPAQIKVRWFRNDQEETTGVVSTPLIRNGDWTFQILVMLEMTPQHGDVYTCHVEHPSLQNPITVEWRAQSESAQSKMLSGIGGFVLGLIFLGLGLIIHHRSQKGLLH

## 61-80: overlapping 20 mer NY-ESO-1 peptide, amino acids 61-80 (PRGPHGGAASGLNGCCRCGA; UniProt P78358 61-80, looked up, fragment) [Peptide 61-80]
[1]
  recognition by clone NW2337-CD4-10: able to recognize

## P49-66: synthetic 18 mer peptide, amino acids 49-66 of NY-ESO-1 (GAARASGPGGGAPRGPHG; UniProt P78358 49-66, looked up, fragment) [Peptide P49-66]
CD4+ T cells [2]
  Patient T cells 1: + (+ indicates >50 spots (all + scores indicated were >100 spots))
  Patient T cells 2: + (+ indicates >50 spots (all + scores indicated were >100 spots))
  Patient T cells 3: + (+ indicates >50 spots (all + scores indicated were >100 spots))
  patients whose CD4+ T cells recognized the peptide: all three patients
[3]
  lysis of peptide pulsed autologous NW-2337-EBV B-cell lines by clones NW-2337-CD4-1 and -4: efficiently lysed
[3]; autologous EBV B cells pulsed with peptide 10 μg/ml, clone generated with p49-66
  recognition by clone NW2337-CD4-1: recognized
[3]; [5]
  recognition by clone NW2337-CD4-10: did not crossreact
[1]
  recognition by clone NW2337-CD4-1: recognized
HLA-DQB1 03011
  MHC class II allele presenting the peptide to NW2337-CD4-1 T cells: HLA-DQB1 03011
NW2337 CD4+ T cells
  IFN-γ secretion by stimulated T cell clones: produced
  IL4 secretion by stimulated T cell clones: not secreted
  IL10 secretion by stimulated T cell clones: not secreted
  TNF-α secretion by stimulated T cell clones: produced
CD4+ T cells [4]
  CD4+ T-cell clones generated by stimulation with peptide: 27

## P61-78: synthetic 18 mer peptide, amino acids 61-78 of NY-ESO-1 (PRGPHGGAASGLNGCCRC; UniProt P78358 61-78, looked up, fragment) [Peptide P61-78]
CD4+ T cells [2]
  Patient T cells 1: + (+ indicates >50 spots (all + scores indicated were >100 spots))
  Patient T cells 2: + (+ indicates >50 spots (all + scores indicated were >100 spots))
  Patient T cells 3: + (+ indicates >50 spots (all + scores indicated were >100 spots))
  patients whose CD4+ T cells recognized the peptide: all three patients
[3]; [5]
  recognition by clone NW2337-CD4-10: crossreacted
[1]
  recognition by clone NW2337-CD4-10: able to recognize

## p51-70: overlapping 20 mer NY-ESO-1 peptide, amino acids 51-70 (ARASGPGGGAPRGPHGGAAS; UniProt P78358 51-70, looked up, fragment)
[1]
  recognition by clone NW2337-CD4-1: recognized

## p151-168: synthetic 18 mer peptide, amino acids 151-168 of NY-ESO-1 (SCLQQLSLLMWITQCFLP; UniProt P78358 151-168, looked up, fragment)
CD4+ T cells [2]
  Patient T cells 1: − (− indicates <50 spots)
  Patient T cells 2: − (− indicates <50 spots)
  Patient T cells 3: − (− indicates <50 spots)

## p157-174: synthetic 18 mer peptide, amino acids 157-174 of NY-ESO-1 (SLLMWITQCFLPVFLAQP; UniProt P78358 157-174, looked up, fragment)
CD4+ T cells [2]
  Patient T cells 1: − (− indicates <50 spots)
  Patient T cells 2: − (− indicates <50 spots)
  Patient T cells 3: − (− indicates <50 spots)

## p163-180: synthetic 18 mer peptide, amino acids 163-180 of NY-ESO-1 (TQCFLPVFLAQPPSGQRR; UniProt P78358 163-180, looked up, fragment)
CD4+ T cells [2]
  Patient T cells 1: − (− indicates <50 spots)
  Patient T cells 2: − (− indicates <50 spots)
  Patient T cells 3: − (− indicates <50 spots)
